The text below walks through data of patent publication US12071408B2, “Multi-targeted tyrosine kinase inhibitors effective in antitumor uses” (Shanghai AB PharmaTech Ltd., priority 2021, dated 2024).

Experiment [1] has as its system hepatocellular carcinoma cell line (Hep3B 2.1-7). Briefly: Tumor cell proliferation inhibition (CTG, 72 h). Type of experiment: cell-based. The settings on record: Homo sapiens; Hep3B 2.1-7 cells, class; read-out: Hep3B 2.1-7 range of activity (IC50).
Experiment [2] concerns bladder cancer cell line (RT112/84). Briefly: Tumor cell proliferation inhibition (CTG, 72 h). Type of experiment: cell-based. The settings on record: Homo sapiens; RT112/84 cells, class; read-out: RT112/84 range of activity (IC50).
The subject of experiment [3] is thyroid cancer cell line (TT). Briefly: Tumor cell proliferation inhibition (CTG, 72 h). The settings on record: Homo sapiens; TT cells, class; read-out: TT range of activity (IC50). In kind it is cell-based.
The test system of experiment [4] is cervical cancer cell line (Hela). Briefly: Tumor cell proliferation inhibition (CTG, 72 h). In kind it is cell-based. The conditions noted are these: Homo sapiens; Hela cells, class; read-out: Hela activity effect range (IC50).
For experiment [5], the system named is leukemia cell line (K562). Briefly: Tumor cell proliferation inhibition (CTG, 72 h). Type of experiment: cell-based. The settings on record: Homo sapiens; K562 cells, class; read-out: K562 activity effect range (IC50).
Experiment [6] addresses VEGFR-2 (KDR) (Homo sapiens (Human), UniProt P35968). Briefly: Kinase inhibition, Mobility-Shift Assay. In kind it is biochemical. The settings on record: class; read-out: KDR activity effect range (IC50).
The target in experiment [7] is FGFR2 (Homo sapiens (Human), UniProt P21802). Briefly: Kinase inhibition, Mobility-Shift Assay. In kind it is biochemical. The conditions noted are these: class; read-out: FGFR2 range of activity effects (IC50).
For experiment [8], the target named is FGFR4 (Homo sapiens (Human), UniProt P22455). Briefly: Kinase inhibition, Mobility-Shift Assay. In kind it is biochemical. The settings on record: class; read-out: FGFR4 range of activity effects (IC50).
Experiment [9] concerns the target EGFR (Homo sapiens (Human), UniProt P00533). Briefly: Kinase inhibition, Mobility-Shift Assay. Type of experiment: biochemical. The conditions noted are these: class; read-out: EGFR range of activity (IC50).
Experiment [10] concerns the target C-MET (Homo sapiens (Human), UniProt P08581). Briefly: Kinase inhibition, Mobility-Shift Assay. In kind it is biochemical. The settings on record: class; read-out: C-MET range of activity (IC50).

Chain of FGFR2 (P21802 22-821): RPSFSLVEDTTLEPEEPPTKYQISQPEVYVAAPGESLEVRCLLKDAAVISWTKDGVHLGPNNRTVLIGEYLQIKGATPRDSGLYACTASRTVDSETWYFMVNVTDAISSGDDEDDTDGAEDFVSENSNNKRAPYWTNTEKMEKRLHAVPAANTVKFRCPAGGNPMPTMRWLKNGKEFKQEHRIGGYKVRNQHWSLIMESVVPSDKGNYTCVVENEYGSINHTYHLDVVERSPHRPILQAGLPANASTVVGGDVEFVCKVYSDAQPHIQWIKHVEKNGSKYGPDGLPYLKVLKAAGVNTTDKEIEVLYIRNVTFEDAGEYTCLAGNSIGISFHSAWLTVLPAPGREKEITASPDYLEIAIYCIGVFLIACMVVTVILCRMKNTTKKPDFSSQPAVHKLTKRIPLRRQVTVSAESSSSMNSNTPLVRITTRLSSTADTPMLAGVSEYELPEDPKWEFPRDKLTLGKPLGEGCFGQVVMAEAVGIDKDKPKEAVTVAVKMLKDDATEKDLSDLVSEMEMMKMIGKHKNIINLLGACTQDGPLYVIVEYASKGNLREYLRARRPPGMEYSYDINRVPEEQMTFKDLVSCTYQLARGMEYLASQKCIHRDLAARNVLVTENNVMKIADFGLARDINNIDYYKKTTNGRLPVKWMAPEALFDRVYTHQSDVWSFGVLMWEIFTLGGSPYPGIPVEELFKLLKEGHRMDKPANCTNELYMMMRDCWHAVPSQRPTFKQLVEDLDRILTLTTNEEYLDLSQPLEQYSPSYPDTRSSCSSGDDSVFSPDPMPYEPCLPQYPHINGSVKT
Chain of C-MET (P08581 25-1390): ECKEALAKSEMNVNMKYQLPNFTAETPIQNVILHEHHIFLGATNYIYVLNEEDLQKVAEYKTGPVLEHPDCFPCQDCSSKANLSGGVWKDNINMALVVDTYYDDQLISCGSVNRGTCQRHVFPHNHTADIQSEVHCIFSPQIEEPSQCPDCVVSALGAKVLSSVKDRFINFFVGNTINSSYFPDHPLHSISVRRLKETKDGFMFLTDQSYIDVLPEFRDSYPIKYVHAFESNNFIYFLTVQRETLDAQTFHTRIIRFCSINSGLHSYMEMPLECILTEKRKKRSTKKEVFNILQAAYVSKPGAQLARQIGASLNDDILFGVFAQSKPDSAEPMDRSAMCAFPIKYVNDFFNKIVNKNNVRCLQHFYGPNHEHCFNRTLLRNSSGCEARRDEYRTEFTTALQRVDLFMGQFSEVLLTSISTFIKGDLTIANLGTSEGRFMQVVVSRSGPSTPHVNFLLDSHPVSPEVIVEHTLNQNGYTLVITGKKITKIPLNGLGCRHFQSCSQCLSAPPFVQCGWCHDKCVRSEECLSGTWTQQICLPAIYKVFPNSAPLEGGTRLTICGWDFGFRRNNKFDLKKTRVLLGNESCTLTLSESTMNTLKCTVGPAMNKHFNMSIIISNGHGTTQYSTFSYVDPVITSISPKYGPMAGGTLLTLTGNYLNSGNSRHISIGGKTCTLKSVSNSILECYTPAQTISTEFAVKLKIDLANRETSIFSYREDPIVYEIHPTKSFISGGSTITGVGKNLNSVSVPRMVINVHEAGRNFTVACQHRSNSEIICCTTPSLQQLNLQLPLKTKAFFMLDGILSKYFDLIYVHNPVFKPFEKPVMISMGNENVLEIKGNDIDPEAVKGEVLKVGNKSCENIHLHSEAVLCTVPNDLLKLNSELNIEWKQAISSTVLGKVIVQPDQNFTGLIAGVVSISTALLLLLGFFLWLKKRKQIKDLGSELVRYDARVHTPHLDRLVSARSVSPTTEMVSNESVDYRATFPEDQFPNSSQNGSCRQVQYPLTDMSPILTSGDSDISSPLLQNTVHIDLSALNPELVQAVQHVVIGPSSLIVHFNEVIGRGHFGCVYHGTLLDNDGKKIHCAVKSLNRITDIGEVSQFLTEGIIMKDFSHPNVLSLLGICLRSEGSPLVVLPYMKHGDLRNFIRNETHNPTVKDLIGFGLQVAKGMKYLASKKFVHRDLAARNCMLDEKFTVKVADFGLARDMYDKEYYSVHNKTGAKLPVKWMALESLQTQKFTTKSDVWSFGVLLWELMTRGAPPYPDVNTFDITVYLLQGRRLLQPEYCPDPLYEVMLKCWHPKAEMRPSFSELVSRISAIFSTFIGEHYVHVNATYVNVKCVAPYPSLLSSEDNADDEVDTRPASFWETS
Chain of VEGFR-2 (KDR) (P35968 20-1356): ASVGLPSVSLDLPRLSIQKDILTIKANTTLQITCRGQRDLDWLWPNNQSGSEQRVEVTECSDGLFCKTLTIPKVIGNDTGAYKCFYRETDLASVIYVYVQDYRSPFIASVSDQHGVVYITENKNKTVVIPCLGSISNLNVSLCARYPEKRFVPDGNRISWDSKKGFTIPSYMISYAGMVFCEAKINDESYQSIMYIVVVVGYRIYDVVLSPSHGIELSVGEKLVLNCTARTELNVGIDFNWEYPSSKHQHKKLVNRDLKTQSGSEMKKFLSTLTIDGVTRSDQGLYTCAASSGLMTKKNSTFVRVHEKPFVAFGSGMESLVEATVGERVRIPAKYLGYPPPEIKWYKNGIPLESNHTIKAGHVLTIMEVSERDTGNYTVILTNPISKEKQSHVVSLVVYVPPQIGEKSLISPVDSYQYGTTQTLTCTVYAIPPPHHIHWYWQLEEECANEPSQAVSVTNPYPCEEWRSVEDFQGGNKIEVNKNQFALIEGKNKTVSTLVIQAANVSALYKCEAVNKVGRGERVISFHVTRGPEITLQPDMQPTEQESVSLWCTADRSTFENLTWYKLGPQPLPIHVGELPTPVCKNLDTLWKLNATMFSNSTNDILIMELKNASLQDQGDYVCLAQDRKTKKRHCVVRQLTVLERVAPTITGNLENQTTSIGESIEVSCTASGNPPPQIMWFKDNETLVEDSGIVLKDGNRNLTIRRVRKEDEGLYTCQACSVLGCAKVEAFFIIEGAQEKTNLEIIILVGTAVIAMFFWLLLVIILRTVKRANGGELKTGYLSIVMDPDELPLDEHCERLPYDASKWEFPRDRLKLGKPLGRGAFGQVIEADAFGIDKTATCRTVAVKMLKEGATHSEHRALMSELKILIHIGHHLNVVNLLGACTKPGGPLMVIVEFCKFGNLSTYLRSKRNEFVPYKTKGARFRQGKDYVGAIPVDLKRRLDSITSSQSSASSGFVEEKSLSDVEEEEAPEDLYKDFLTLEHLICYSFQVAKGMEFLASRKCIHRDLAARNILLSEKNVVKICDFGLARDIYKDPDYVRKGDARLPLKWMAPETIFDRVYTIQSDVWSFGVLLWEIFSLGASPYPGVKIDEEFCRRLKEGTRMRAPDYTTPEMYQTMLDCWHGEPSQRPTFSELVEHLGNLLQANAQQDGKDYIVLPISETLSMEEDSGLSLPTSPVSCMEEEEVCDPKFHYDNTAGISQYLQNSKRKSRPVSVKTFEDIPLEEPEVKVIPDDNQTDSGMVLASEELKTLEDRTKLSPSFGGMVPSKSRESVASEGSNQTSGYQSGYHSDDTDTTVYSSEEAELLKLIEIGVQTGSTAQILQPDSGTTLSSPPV
Chain of FGFR4 (P22455 22-802): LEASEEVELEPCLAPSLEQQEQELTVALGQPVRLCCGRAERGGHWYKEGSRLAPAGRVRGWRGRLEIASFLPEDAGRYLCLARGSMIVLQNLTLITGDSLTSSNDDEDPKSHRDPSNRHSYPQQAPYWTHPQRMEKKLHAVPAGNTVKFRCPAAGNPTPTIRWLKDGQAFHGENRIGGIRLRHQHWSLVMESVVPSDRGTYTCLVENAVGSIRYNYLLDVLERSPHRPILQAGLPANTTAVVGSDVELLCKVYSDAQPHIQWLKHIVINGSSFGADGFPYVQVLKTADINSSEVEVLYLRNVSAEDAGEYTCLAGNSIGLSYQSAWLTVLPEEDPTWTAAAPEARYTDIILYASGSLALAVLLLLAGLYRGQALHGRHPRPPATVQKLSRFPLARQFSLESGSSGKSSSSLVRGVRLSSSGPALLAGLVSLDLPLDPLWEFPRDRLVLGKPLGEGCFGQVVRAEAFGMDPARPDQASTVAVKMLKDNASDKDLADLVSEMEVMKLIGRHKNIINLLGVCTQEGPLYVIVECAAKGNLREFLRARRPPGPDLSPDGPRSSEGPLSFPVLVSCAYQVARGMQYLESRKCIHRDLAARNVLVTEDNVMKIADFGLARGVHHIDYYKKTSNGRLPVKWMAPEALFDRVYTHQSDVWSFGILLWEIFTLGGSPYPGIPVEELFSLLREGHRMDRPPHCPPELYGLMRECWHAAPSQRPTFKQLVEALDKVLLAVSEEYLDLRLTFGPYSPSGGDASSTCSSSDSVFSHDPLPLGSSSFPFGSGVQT

For the compound `COc1cc2nccc(Oc3c(F)cc(NC(=O)N(C)C(C)C)c(Cl)c3F)c2cc1C(N)=O` [III-02], the IC50 was over 5000 nM in [1]; over 1000 nM in [2]; over 10000 nM in experiment [3]; over 10000 nM in [4]; over 10000 nM in experiment [5]; over 10 nM in experiment [6]. Also, the IC50 in experiment [7], in [8], in experiment [9] and in experiment [10] was over 100 nM each time.

On to `CCC(C)NC(=O)Nc1cc(F)c(Oc2ccnc3cc(OC)c(C(N)=O)cc23)c(F)c1Cl` (centres unmarked) [III-03], for which the IC50 was over 5000 nM in experiment [1]; over 1000 nM in experiment [2]; over 10000 nM in experiment [3]; over 10000 nM in experiment [4]; over 10000 nM in experiment [5]; over 10 nM in experiment [6]. Further, the IC50 in experiment [7], in [8], in experiment [9] and in [10] was over 100 nM each time.

For `COc1cc2nccc(Oc3c(F)cc(NC(=O)NC(C)(C)C)c(Cl)c3F)c2cc1C(N)=O` [III-04], the IC50 in [1] was over 5000 nM; in [2], over 1000 nM; in [3], over 10000 nM; in experiment [4], over 10000 nM; in experiment [5], over 10000 nM; in experiment [6], over 10 nM. Also, the IC50 in experiment [7], in [8], in [9] and in experiment [10] was over 100 nM throughout.

On to `COc1cc2nccc(Oc3c(F)cc(NC(=O)NCC(F)F)c(Cl)c3F)c2cc1C(N)=O` [III-05], for which the IC50 in [1] was over 5000 nM; in experiment [2] it was over 1000 nM; in experiment [3] it was over 10000 nM; in experiment [4], over 10000 nM; in [5], over 10000 nM; in experiment [6] it was over 10 nM. Moreover, the IC50 in experiment [7], in experiment [8], in [9] and in experiment [10] was over 100 nM each time.

As for `COc1cc2nccc(Oc3c(F)cc(NC(=O)NCCO)c(Cl)c3F)c2cc1C(N)=O` [III-06], the IC50 in experiment [1] was over 5000 nM; in experiment [2], over 1000 nM; in experiment [3], over 10000 nM; in experiment [4], over 10000 nM; in experiment [5], over 10000 nM; in experiment [6] it was over 10 nM. Besides, the IC50 in experiment [7], in experiment [8], in experiment [9] and in [10] was over 100 nM each time.

Regarding `COc1cc2nccc(Oc3c(F)cc(NC(=O)N[C@@H](C)CO)c(Cl)c3F)c2cc1C(N)=O` [III-07], the IC50 in experiment [1] is over 5000 nM; in experiment [2], over 1000 nM; in experiment [3], over 10000 nM; in [4], over 10000 nM; in [5], over 10000 nM; in [6] it was over 10 nM. For the same compound, the IC50 in experiment [7], in [8], in [9] and in experiment [10] was over 100 nM in each case.

`COc1cc2nccc(Oc3c(F)cc(NC(=O)N[C@H](C)CO)c(Cl)c3F)c2cc1C(N)=O` [III-08]: the IC50 in experiment [1] was over 5000 nM; in experiment [2] it was over 1000 nM; in [3] it was over 10000 nM; in [4], over 10000 nM; in experiment [5], over 10000 nM; in experiment [6] it was over 10 nM. Besides, the IC50 in experiment [7], in experiment [8], in experiment [9] and in experiment [10] was over 100 nM in each case.

Turning to `COc1cc2nccc(Oc3c(F)cc(NC(=O)NC[C@H](C)O)c(Cl)c3F)c2cc1C(N)=O` [III-09], the IC50 was over 5000 nM in experiment [1]; over 1000 nM in experiment [2]; over 10000 nM in experiment [3]; over 10000 nM in experiment [4]; over 10000 nM in experiment [5]; over 10 nM in [6]. Besides, the IC50 in experiment [7], in [8], in experiment [9] and in experiment [10] was over 100 nM each time.
